Results from US7772180B2, “Hepatitis C virus inhibitors” (Bristol-Myers Squibb Company, priority 2006, dated 2010).

Target: T1, HCV NS3/4A protease complex, J4L6S strain (Hepatitis C virus genotype 1b, UniProt O92972, C1454S/C1711G)
T1 construct: DNA encoding the recombinant HCV NS3/4A protease complex (amino acids 1027 to 1711) for these strains; made in house; host or cells: Escherichia coli BL21 (DE3), pET21b
Experiment: FRET peptide assay to monitor HCV NS3/4A proteolytic activity (J4L6S strain)
Assay type: biochemical
Conditions: read-out: IC50 against the NS3/4A J4L6S strain
Source text: HCV NS3 protease complexes, derived from the BMS strain, H77 strain or J4L6S strain, were generated, as described below. These purified recombinant proteins were generated for use in a homogeneous assay (see below) to provide an indication of how effective compounds of the present disclosure would be in inhibiting HCV NS3 proteolytic activity.
Serum from an HCV-infected patient was obtained from Dr. T. Wright, San Francisco Hospital. An engineered full-length cDNA (compliment deoxyribonucleic acid) template of the HCV genome (BMS strain) was constructed from DNA fragments obtained by reverse transcription-PCR (RT-PCR) of serum RNA (ribonucleic acid) and using primers selected on the basis of homology between other genotype 1a strains. From the determination of the entire genome sequence, a genotype 1a was assigned to the HCV isolate according to the classification of Simmonds et al. (See P Simmonds, K A Rose, S Graham, S W Chan, F McOmish, B C Dow, E A Follett, P L Yap and H Marsden, J. Clin. Microbiol., 31(6), 1493-1503 (1993)). […]

T1 sequence (O92972 1027-1711 C1454S/C1711G, one chain of several): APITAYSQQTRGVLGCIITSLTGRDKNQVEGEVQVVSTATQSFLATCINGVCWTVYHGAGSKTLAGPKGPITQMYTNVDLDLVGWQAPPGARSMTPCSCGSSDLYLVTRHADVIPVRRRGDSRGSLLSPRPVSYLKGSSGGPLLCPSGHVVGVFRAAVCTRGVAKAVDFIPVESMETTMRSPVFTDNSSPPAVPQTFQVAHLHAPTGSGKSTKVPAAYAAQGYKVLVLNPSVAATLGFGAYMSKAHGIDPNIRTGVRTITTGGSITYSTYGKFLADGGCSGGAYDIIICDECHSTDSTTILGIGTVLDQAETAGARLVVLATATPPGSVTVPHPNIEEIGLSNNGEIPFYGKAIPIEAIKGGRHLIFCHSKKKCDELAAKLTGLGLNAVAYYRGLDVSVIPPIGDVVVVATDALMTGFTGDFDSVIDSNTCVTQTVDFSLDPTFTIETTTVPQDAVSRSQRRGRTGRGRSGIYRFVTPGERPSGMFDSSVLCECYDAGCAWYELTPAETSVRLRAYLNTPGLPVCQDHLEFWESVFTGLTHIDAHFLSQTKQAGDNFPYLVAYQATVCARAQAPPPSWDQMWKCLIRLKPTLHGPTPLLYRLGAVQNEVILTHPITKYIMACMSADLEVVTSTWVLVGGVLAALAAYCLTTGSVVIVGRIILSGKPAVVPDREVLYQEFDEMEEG

**Q.** Which IC50 does the source give for `C=C[C@@H]1C[C@]1(NC(=O)[C@@H]1C[C@@H](Oc2nc(N(C)C)cc3cc(OC)ccc23)CN1C(=O)C(Nc1cc(C)cc(C)n1)C(C)(C)C)C(=O)NS(=O)(=O)C1CC1` (single isomer, unassigned) [Compound 18] here?
**A.** The IC50 was 0.9 nM.
